{
  "source": "patent US10961309B2",
  "about": "“Reducing systemic regulatory T cell levels or activity for treatment of disease and injury of the CNS” (Yeda Research and Development Co. Ltd, priority 2014, dated 2021)",
  "assay_type_in_all_cases": "in vivo, mouse",
  "key": {"[1]": {"test_system": "soluble Aβ1-40 and Aβ1-42", "experiment": "Soluble Aβ (sAβ) protein quantification by ELISA", "conditions": "3 weeks after 1 week ATRA treatment, AD-Tg mice", "description": "Tissue homogenization and sAβ protein extraction was performed as previously described (Schmidt et al, 2005). Briefly, cerebral brain parenchyma was dissected and snap-frozen and kept at −80° C. until homogenization. Proteins were sequentially extracted from samples to obtain separate fractions containing proteins of differing solubility. Samples were homogenized in 10 volumes of ice-cold tissue homogenization buffer, containing 250 mM of sucrose, 20 mM of Tris base, 1 mM of ethylenediaminetetraacetic acid (EDTA), and 1 mM of ethylene glycol tetraacetic acid (pH 7.4), using a ground glass pestle in a Dounce homogenizer. After six strokes, the homogenate was mixed 1:1 with 0.4% diethylamine (DEA) in a 100-mM NaCl solution before an additional six strokes, and then centrifuged at 135,000 g at 4° C. for 45 min. The supernatant (DEA-soluble fraction containing extracellular and cytosolic proteins) was collected and neutralized with 10% of 0.5M of Tris-HCl (pH 6.8). Aβ1-40 and Aβ1-42 were individually measured by enzyme-linked immunosorbent assay (ELISA) from the soluble fraction using commercially available kits (Biolegend; #SIG-38954 and #SIG-38956, respectively) according to the manufacturer instructions."}, "Foxp3+ Tregs": {"test_system": "Foxp3+ Tregs", "experiment": "Conditional ablation of Treg by DTx, confirmed by flow cytometry", "description": "(§1) Mice were transcardially perfused with PBS, and tissues were treated as previously described (Baruch et al, 2013). Brains were dissected and the different brain regions were removed under a dissecting microscope (Stemi DV4; Zeiss) in PBS, and tissues were dissociated using the gentleMACS™ dissociator (Miltenyi Biotec). Choroid plexus tissues were isolated from the lateral, third and fourth ventricles of the brain, incubated at 37° C. for 45 min in PBS (with Ca^2+/Mg^2+) containing 400 U/ml collagenase type IV (Worthington Biochemical Corporation), and then manually homogenized by pipetting. Spleens were mashed with the plunger of a syringe and treated with ACK (ammonium chloride potassium) lysing buffer to remove erythrocytes. In all cases, samples were stained according to the manufacturers' protocols. All samples were filtered through a 70 μm nylon mesh, and blocked with anti-Fc CD16/32 (1:100; BD Biosciences). For intracellular staining of IFN-γ, the cells were incubated with […] (10 ng/ml; Sigma-Aldrich) and ionomycin (250 ng/ml; Sigma-Aldrich) for 6 h, and Brefeldin-A (10 μg/ml; Sigma-Aldrich) was added for the last 4 h. Intracellular labeling of cytokines was done with BD Cytofix/Cytoperm™ Plus fixation/permeabilization kit (cat. no. 555028). […] Cells were analyzed on an LSRII cytometer (BD Biosciences) using FlowJo software. […]"}, "[2]": {"test_system": "IFN-γ-expressing immune cells in the CP", "experiment": "Flow cytometry of CP IFN-γ-expressing immune cells", "conditions": "weekly-GA, 5XFAD AD-Tg mice, end of 1st week of regimen", "description": "as §1"}},
  "data": [
    {"compound": "CC1=C(/C=C/C(C)=C/C=C/C(C)=C/C(=O)O)C(C)(C)CCC1", "note": "[ATRA, All-trans retinoic acid]", "values": [
      {"measurement": "cerebral sAβ1-40 and sAβ1-42 levels", "setting": "[1]", "value": "increased"}
    ]},
    {"compound": "Diphtheria toxin [DTx]", "values": [
      {"measurement": "depletion of the GFP-expressing FoxP3+ CD4+ Treg cells", "setting": "Foxp3+ Tregs; blood and spleen, Foxp3.LuciDTR mice, DTx 8 ng/g i.p. daily 4 consecutive days", "value": "> 99", "unit": "%"},
      {"measurement": "depletion of Foxp3+ cells", "setting": "Foxp3+ Tregs; splenocytes from AD-Tg/Foxp3-DTR+/− mice, 1 day after last injection, DTx i.p. 4 days", "value": "~99", "unit": "%"}
    ]},
    {"compound": "Glatiramer acetate [GA]", "values": [
      {"measurement": "IFN-γ-producing cells at the CP", "setting": "[2]", "value": "increase"}
    ]}
  ]
}
